From patent US12528791B2 (priority 2019, dated 2026)

Key:
TR beta-LBD = target: T1, TR beta-LBD (Homo sapiens, UniProt P10828); type: biochemical; conditions: TR-FRET assay; THR beta over THR alpha, derived from T3-selectivity normalized data
T1 sequence (P10828 217-461 limits assumed): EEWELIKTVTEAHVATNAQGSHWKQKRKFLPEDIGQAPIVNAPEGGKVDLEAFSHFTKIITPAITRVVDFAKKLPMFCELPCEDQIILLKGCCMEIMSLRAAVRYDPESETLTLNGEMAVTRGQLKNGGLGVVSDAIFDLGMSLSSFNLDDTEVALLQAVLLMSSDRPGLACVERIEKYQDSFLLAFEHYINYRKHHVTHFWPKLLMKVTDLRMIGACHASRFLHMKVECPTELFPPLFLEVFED

THR-β/RXR-α = target: T2, THR-β/RXR-α (Homo sapiens, UniProt P10828); type: biochemical; conditions: RXR heterodimer assay; compound activity normalized to T3 for THR-β/RXR-α and THR-α/RXR-α
T2 sequence (P10828 202-461 limits assumed): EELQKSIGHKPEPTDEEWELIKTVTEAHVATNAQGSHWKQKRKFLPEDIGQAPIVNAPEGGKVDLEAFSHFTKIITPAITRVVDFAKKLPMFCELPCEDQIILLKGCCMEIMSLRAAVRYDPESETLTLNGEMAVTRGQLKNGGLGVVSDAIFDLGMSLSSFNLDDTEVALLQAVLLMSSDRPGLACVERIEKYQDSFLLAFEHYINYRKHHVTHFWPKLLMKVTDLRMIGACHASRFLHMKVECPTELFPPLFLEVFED
T2 sequence (P19793 225-462 partner limits assumed): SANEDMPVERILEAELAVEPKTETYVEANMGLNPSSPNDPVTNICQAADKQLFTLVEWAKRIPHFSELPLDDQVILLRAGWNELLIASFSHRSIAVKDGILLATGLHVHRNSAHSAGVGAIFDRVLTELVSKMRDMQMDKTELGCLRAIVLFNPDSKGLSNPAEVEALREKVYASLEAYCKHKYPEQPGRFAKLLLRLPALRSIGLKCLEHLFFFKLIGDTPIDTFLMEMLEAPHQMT
T2 sequence (Q15596 679-703 partner limits assumed): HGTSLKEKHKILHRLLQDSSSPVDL

| SMILES | THRβ-Selectivity (TR beta-LBD) | THRβ-Selectivity (THR-β/RXR-α) |
| --- | --- | --- |
| Cc1ccnc2ccc(Oc3c(Cl)cc(-n4nc(C#N)c(=O)[nH]c4=O)cc3Cl)cc12 [Example 15, 2-(3,5-dichloro-4-((4-methylquinolin-6-yl)oxy)phenyl)-3,5-dioxo-2,3,4,5-tetrahydro-1,2,4-triazine-6-carbonitrile] | 15.9 | 15.4 |
| Cc1n[nH]c2ccc(Oc3c(Cl)cc(-c4n[nH]c(=O)[nH]c4=O)cc3Cl)cc12 [Example 5, 6-(3,5-dichloro-4-((3-methyl-1H-indazol-5-yl)oxy)phenyl)-1,2,4-triazine-3,5(2H,4H)-dione] | 15.6 | 3.1 |
| Cc1cnc2ccc(Oc3c(Cl)cc(-n4nc(C#N)c(=O)[nH]c4=O)cc3Cl)cc2c1 [Example 16, 2-(3,5-dichloro-4-((3-methylquinolin-6-yl)oxy)phenyl)-3,5-dioxo-2,3,4,5-tetrahydro-1,2,4-triazine-6-carbonitrile] | 68.1 | 7.1 |
| N#Cc1nn(-c2cc(Cl)c(Oc3ccc4ncn(C5CC5)c4c3)c(Cl)c2)c(=O)[nH]c1=O [Example 23, 2-(3,5-dichloro-4-((1-cyclopropyl-1H-benzo[d]imidazol-6-yl)oxy)phenyl)-3,5-dioxo-2,3,4,5-tetrahydro-1,2,4-triazine-6-carbonitrile] | 20.2 | 5.7 |
| COc1n[nH]c2ccc(Oc3c(Cl)cc(-n4nc(C#N)c(=O)[nH]c4=O)cc3Cl)cc12 [Example 9, 2-(3,5-dichloro-4-((3-methoxy-1H-indazol-5-yl)oxy)phenyl)-3,5-dioxo-2,3,4,5-tetrahydro-1,2,4-triazine-6-carbonitrile] | 8.0 | 10.3 |
| CCc1n[nH]c2ccc(Oc3c(Cl)cc(-c4n[nH]c(=O)[nH]c4=O)cc3Cl)cc12 [Example 2, 6-(3,5-dichloro-4-((3-ethyl-1H-indazol-5-yl)oxy)phenyl)-1,2,4-triazine-3,5(2H,4H)-dione] | 28.0 | 3.6 |
| CC(C)n1cnc2ccc(Oc3c(Cl)cc(-n4nc(C#N)c(=O)[nH]c4=O)cc3Cl)cc21 [Example 21, 2-(3,5-dichloro-4-((1-isopropyl-1H-benzo[d]imidazol-6-yl)oxy)phenyl)-3,5-dioxo-2,3,4,5-tetrahydro-1,2,4-triazine-6-carbonitrile] | 12.9 | 10.9 |
| Cc1n[nH]c2ncc(Oc3c(Cl)cc(NC(=O)c4noc(=O)[nH]4)cc3Cl)cc12 [Example 6, N-(3,5-dichloro-4-((3-methyl-1H-pyrazolo[3,4-b]pyridin-5-yl)oxy)phenyl)-5-oxo-4,5-dihydro-1,2,4-oxadiazole-3-carboxamide] | >18.5 | 5.6 |
| N#Cc1nn(-c2cc(Cl)c(Oc3ccc4ncccc4c3)c(Cl)c2)c(=O)[nH]c1=O [Example 13, 2-(3,5-dichloro-4-(quinolin-6-yloxy)phenyl)-3,5-dioxo-2,3,4,5-tetrahydro-1,2,4-triazine-6-carbonitrile] | 3.7 | 5.5 |
